# Test results from patent publication US20210040118A1, “IMMUNOMODULATORS, COMPOSITIONS AND METHODS THEREOF” (BETTA PHARMACEUTICALS CO., LTD, priority 2018, published 2021).
# pIC50: −log10 of the molar value.
# Target: T1, PD-1/PD-L1 (Homo sapiens, UniProt Q9NZQ7)
# T1 construct: Recombinant human PD-L1 protein (19-238) with a His-tag at the C-terminus; purchased AcroBiosystems PD1-H5229 (PD-L1); PD1-H5257 (PD-1)
# Assay: PD-1/PD-L1 homogenous time-resolved fluorescence (HTRF) binding assay
# Conditions: recombinant human PD-L1 (19-238) His-tag / human PD-1 (25-167) Fc tag, class symbols
# In short: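 Inhibitors were preincubated 40 min at 25°C with 10 nM His-tagged human PD-L1 (19-238) and 3 nM Fc-tagged human PD-1 (25-167) in PBS pH 7.4 containing Tween-20, BSA and 1% DMSO. After 60 min with europium anti-human IgG and anti-His-APC, 665/620 nm signal ratio gave IC50 via percent-control fit.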
# T1 sequence (Q9NZQ7 19-238): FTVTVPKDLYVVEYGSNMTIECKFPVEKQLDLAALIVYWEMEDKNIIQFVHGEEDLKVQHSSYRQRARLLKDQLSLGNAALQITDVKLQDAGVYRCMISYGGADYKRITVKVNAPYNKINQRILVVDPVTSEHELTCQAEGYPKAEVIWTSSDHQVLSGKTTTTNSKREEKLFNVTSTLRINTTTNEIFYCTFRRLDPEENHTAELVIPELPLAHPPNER
row,pIC50,Structure (SMILES)
1,7.00 to 7.60,"Cc1c(NC(=O)c2nc3c(s2)CN(C(C)C)CC3)cccc1-c1cccc(NC(=O)c2nc3c(s2)CN(C(C)C)CC3)c1C [Example 77, N,N′-(2,2′-dimethyl-[1,1′-biphenyl]-3,3′-diyl)bis(5-isopropyl-4,5,6,7-tetrahydrothiazolo[5,4-c]pyridine-2-carboxamide)]"
2,> 7.60,"Cc1c(NC(=O)c2nc3c(s2)CN(CCCN2CCOCC2)CC3)cccc1-c1cccc(NC(=O)c2nc3c(s2)CN(CCCN2CCOCC2)CC3)c1C [Example 81, N,N′-(2,2′-dimethyl-[1,1′-biphenyl]-3,3′-diyl)bis(5-(3-morpholinopropyl)-4,5,6,7-tetrahydrothiazolo[5,4-c]pyridine-2-carboxamide)]"
3,> 7.60,"Cc1c(Nc2nccc3cc(CN[C@@H](C)C(=O)O)cnc23)cccc1-c1cccc2c1CCN2C(=O)C1=NC2CCN(CC(=O)O)CC2S1 (stereo partly shown) [Example 163, ((8-((3-(1-(5-(carboxymethyl)-3a,4,5,6,7,7a-hexahydrothiazolo[5,4-c]pyridine-2-carbonyl)indolin-4-yl)-2-methylphenyl)amino)-1,7-naphthyridin-3-yl)methyl)alanine]"
4,> 7.60,"Cc1c(Nc2nccc3cc(CNCC(=O)O)cnc23)cccc1-c1cccc(Nc2nccc3cc(CN4CCC4)cnc23)c1C [Example 149, ((8-((3′-((3-(azetidin-1-ylmethyl)-1,7-naphthyridin-8-yl)amino)-2,2′-dimethyl-[1,1′-biphenyl]-3-yl)amino)-1,7-naphthyridin-3-yl)methyl)glycine]"
5,> 7.60,"Cc1c(NC(=O)c2ccc3c(n2)CCNC3)cccc1-c1cccc(NC(=O)c2ccc3c(n2)CCNC3)c1C [Example 167, N,N′-(2,2′-dimethyl-[1,1′-biphenyl]-3,3′-diyl)bis(5,6,7,8-tetrahydro-1,6-naphthyridine-2-carboxamide)]"
6,> 7.60,"Cc1c(NC(=O)c2nc3c(s2)CNCC3)cccc1-c1cccc(NC(=O)c2nc3c(s2)CNCC3)c1Cl [Example 48, N,N′-(2-chloro-2′-methylbiphenyl-3,3′-diyl)bis(4,5,6,7-tetrahydrothiazolo[5,4-c]pyridine-2-carboxamide)]"
7,> 7.60,"Cc1c(Nc2nccc3cc(CN4CCOCC4)cnc23)cccc1-c1cccc(Nc2nccc3cc(CN4CCOCC4)cnc23)c1C [Example 151, 2,2′-dimethyl-N3,N3′-bis(3-(morpholinomethyl)-1,7-naphthyridin-8-yl)-[1,1′-biphenyl]-3,3′-diamine]"
8,> 7.60,"Cc1c(Nc2nccc3cc(CNCC(=O)N(C)C)cnc23)cccc1-c1cccc(Nc2nccc3cc(CNCC(=O)N(C)C)cnc23)c1C [Example 145, 2,2′-(((((2,2′-dimethyl-[1,1′-biphenyl]-3,3′-diyl)bis(azanediyl))bis(1,7-naphthyridine-8,3-diyl))bis(methylene))bis(azanediyl))bis(N,N-dimethylacetamide)]"
9,> 7.60,"Cc1c(Nc2nccc3cc(CNCCO)cnc23)cccc1-c1cccc(Nc2nccc3cc(CNCC(=O)O)cnc23)c1C [Example 139, ((8-((3′-((3-(((2-hydroxyethyl)amino)methyl)-1,7-naphthyridin-8-yl)amino)-2,2′-dimethyl-[1,1′-biphenyl]-3-yl)amino)-1,7-naphthyridin-3-yl)methyl)glycine]"
10,> 7.60,"Cc1nc(C(=O)Nc2cccc(-c3cccc4c3CCN4C(=O)c3nc(C)c(CN[C@H](C(=O)O)C4CCOCC4)s3)c2)sc1CN[C@H](C(=O)O)C1CCOCC1 [Example 63, (S)-2-((2-(3-(1-(5-(((S)-carboxy(tetrahydro-2H-pyran-4-yl)methylamino)methyl)-4-methylthiazole-2-carbonyl)indolin-4-yl)phenylcarbamoyl)-4-methylthiazol-5-yl)methylamino)-2-(tetrahydro-2H-pyran-4-yl)acetic acid]"
11,> 7.60,"Cc1nc(C(=O)Nc2cccc(-c3cccc(NC(=O)c4nc(C)c(CNCCO)s4)c3C)c2C)sc1CNCCO [Example 51, N,N′-(2,2′-dimethylbiphenyl-3,3′-diyl)bis(5-((2-hydroxyethylamino)methyl)-4-methylthiazole-2-carboxamide)]"
12,> 7.60,"Cc1nc(C(=O)Nc2cccc(-c3cccc(NC(=O)c4nc(C)c(CN[C@H](C(=O)O)C5CCOCC5)s4)c3Cl)c2C)sc1CN[C@H](C(=O)O)C1CCOCC1 [Example 55, (2S,2'S)-2,2′-(2,2′-(2-chloro-2′-methylbiphenyl-3,3′-diyl)bis(azanediyl)bis(oxomethylene)bis(4-methylthiazole-5,2-diyl))bis(methylene)bis(azanediyl)bis(2-(tetrahydro-2H-pyran-4-yl)acetic acid)]"

# Same assay, conditions: recombinant human PD-L1 (19-238) His-tag / human PD-1 (25-167) Fc tag, numeric values
row,pIC50,Structure (SMILES)
1,9.43,"O=C(O)CN1CCc2nc(C(=O)N3CCc4c(-c5cccc6c5CCN6C(=O)c5nc6c(s5)CN(CC(=O)O)CC6)cccc43)sc2C1 [Example 103, 2,2′-(([4,4′-biindoline]-1,1′-dicarbonyl)bis(6,7-dihydrothiazolo[5,4-c]pyridine-2,5(4H)-diyl))diacetic acid]"
